From patent US10251892B2, “Bicyclic heterocycles as FGFR4 inhibitors” (Incyte Corporation, priority 2015, dated 2019)

Molecular target: FGFR3 enzyme (Homo sapiens (Human), UniProt P22607)
Assay: FGFR Enzymatic Assay (peptide phosphorylation, FRET), FGFR3
Assay type: biochemical
Settings: IC50 ratio showing FGFR3 selectivity; pre-incubated for 4 hours
Description: The inhibitor potency of the exemplified compounds was measured in an enzyme assay that measures peptide phosphorylation using FRET measurements to detect product formation. Inhibitors were serially diluted in DMSO and a volume of 0.5 μL was transferred to the wells of a 384-well plate.
GraphPad prism3 was used to analyze the data.

FGFR3 enzyme, sequence (P22607 23-806): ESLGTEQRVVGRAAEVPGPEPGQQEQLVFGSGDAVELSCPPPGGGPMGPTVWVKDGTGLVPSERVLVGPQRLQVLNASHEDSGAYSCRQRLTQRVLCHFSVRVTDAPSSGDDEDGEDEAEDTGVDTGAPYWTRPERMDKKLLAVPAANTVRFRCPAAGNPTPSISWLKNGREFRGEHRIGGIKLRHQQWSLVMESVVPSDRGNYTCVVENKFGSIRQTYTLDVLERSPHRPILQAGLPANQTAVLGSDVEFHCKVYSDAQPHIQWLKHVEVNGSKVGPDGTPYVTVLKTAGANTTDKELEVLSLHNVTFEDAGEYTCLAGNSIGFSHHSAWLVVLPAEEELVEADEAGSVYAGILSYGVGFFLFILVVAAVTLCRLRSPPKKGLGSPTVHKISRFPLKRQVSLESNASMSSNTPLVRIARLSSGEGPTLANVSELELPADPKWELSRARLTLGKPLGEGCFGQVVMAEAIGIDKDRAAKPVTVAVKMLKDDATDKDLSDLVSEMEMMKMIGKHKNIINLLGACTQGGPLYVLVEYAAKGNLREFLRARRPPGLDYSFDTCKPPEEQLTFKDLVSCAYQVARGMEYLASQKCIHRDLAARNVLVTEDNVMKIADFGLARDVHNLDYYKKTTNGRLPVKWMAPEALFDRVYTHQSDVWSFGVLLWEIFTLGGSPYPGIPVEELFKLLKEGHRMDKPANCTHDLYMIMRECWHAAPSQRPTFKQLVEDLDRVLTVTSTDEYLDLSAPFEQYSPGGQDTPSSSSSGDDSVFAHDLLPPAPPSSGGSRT

| FGFR1/FGFR3 | FGFR4/FGFR3 | Compound |
| --- | --- | --- |
| >5 | >10 | CCN1C(=O)N(c2c(F)c(OC)cc(OC)c2F)Cc2cnc(-c3ccc(C4(C#N)CCC4)cc3)cc21 [Example 181, 1-(4-(3-(2,6-difluoro-3,5-dimethoxyphenyl)-1-ethyl-2-oxo-1,2,3,4-tetrahydropyrido[4,3-d]pyrimidin-7-yl)phenyl)cyclobutanecarbonitrile] |
| >10 | >10 | COc1cc(OC)c(F)c(N2Cc3cnc(-c4cn(C)nc4C)cc3N(Cc3cnn(C)c3C)C2=O)c1F [Example 48, 3-(2,6-difluoro-3,5-dimethoxyphenyl)-7-(1,3-dimethyl-1H-pyrazol-4-yl)-1-[(1,5-dimethyl-1H-pyrazol-4-yl)methyl]-3,4-dihydropyrido[4,3-d]pyrimidin-2(1H)-one] |
| >5 | >3 | COC(=O)Nc1ccc(N2C(=O)N(c3c(F)c(OC)cc(OC)c3F)Cc3cnc(-c4cn(C)nc4C)cc32)cc1 [Example 123, Methyl 4-(3-(2,6-difluoro-3,5-dimethoxyphenyl)-7-(1,3-dimethyl-1H-pyrazol-4-yl)-2-oxo-3,4-dihydropyrido[4,3-d]pyrimidin-1(2H)-yl)phenylcarbamate] |
| >5 | – | CCN1C(=O)N(c2c(F)c(OC)cc(OC)c2F)Cc2cnc(-c3ccccc3)cc21 [Example 22, 3-(2,6-difluoro-3,5-dimethoxyphenyl)-1-ethyl-7-phenyl-3,4-dihydropyrido[4,3-d]pyrimidin-2(1H)-one] |
| >10 | >10 | COc1cc(OC)c(F)c(N2Cc3cnc(-c4cn(C)nc4C)cc3N(Cc3nnc(C)o3)C2=O)c1F [Example 46, 3-(2,6-difluoro-3,5-dimethoxyphenyl)-7-(1,3-dimethyl-1H-pyrazol-4-yl)-1-[(5-methyl-1,3,4-oxadiazol-2-yl)methyl]-3,4-dihydropyrido[4,3-d]pyrimidin-2(1H)-one] |
| >3 | >5 | COc1cc(OC)c(F)c(N2Cc3cnc(-c4cn(C)nc4C)cc3N(c3ccccc3F)C2=O)c1F [Example 110, 3-(2,6-difluoro-3,5-dimethoxyphenyl)-7-(1,3-dimethyl-1H-pyrazol-4-yl)-1-(2-fluorophenyl)-3,4-dihydropyrido[4,3-d]pyrimidin-2(1H)-one] |
| >10 | >10 | COc1cc(CN2C(=O)N(c3c(F)c(OC)cc(OC)c3F)Cc3cnc(-c4cn(C)nc4C)cc32)ccn1 [Example 58, 3-(2,6-difluoro-3,5-dimethoxyphenyl)-7-(1,3-dimethyl-1H-pyrazol-4-yl)-1-((2-methoxypyridin-4-yl)methyl)-3,4-dihydropyrido[4,3-d]pyrimidin-2(1H)-one] |
| >5 | >10 | COc1cc(OC)c(F)c(N2Cc3cnc(-c4cn(C)nc4C)cc3N(Cc3cnccn3)C2=O)c1F [Example 85, 3-(2,6-difluoro-3,5-dimethoxyphenyl)-7-(1,3-dimethyl-1H-pyrazol-4-yl)-1-(pyrazin-2-ylmethyl)-3,4-dihydropyrido[4,3-d]pyrimidin-2(1H)-one] |
| >3 | >5 | CCc1cnc(N2C(=O)N(c3c(F)c(OC)cc(OC)c3F)Cc3cnc(-c4cn(C)nc4C)cc32)cn1 [Example 106, 3-(2,6-difluoro-3,5-dimethoxyphenyl)-7-(1,3-dimethyl-1H-pyrazol-4-yl)-1-(5-ethylpyrazin-2-yl)-3,4-dihydropyrido[4,3-d]pyrimidin-2(1H)-one] |
| >3 | >5 | COc1cc(OC)c(F)c(N2Cc3cnc(-c4cn(C)nc4C)cc3N(c3cc(F)cc(F)c3)C2=O)c1F [Example 103, 3-(2,6-difluoro-3,5-dimethoxyphenyl)-1-(3,5-difluorophenyl)-7-(1,3-dimethyl-1H-pyrazol-4-yl)-3,4-dihydropyrido[4,3-d]pyrimidin-2(1H)-one] |
| >3 | >3 | COc1cc(OC)c(F)c(N2Cc3cnc(-c4ccncc4)cc3C3(CC3)C2=O)c1F [Example 185, 2′-(2,6-difluoro-3,5-dimethoxyphenyl)-6′-(pyridin-4-yl)-1′H-spiro[cyclopropane-1,4′-[2,7]naphthyridin]-3′(2′H)-one] |

Further lines, the compound ahead of its results:

| Compound | FGFR1/FGFR3 | FGFR4/FGFR3 |
| --- | --- | --- |
| COc1cc(OC)c(F)c(N2Cc3cnc(-c4cn(C)nc4C)cc3N(c3ccc(C#N)cn3)C2=O)c1F [Example 79, 6-(3-(2,6-difluoro-3,5-dimethoxyphenyl)-7-(1,3-dimethyl-1H-pyrazol-4-yl)-2-oxo-3,4-dihydropyrido[4,3-d]pyrimidin-1(2H)-yl)nicotinonitrile] | >5 | >3 |
| COc1cc(OC)c(F)c(N2Cc3cnc(-c4ccc(C5(C#N)CCC5)nc4)cc3N(Cc3nnc(C)o3)C2=O)c1F [Example 187, 1-(5-{3-(2,6-difluoro-3,5-dimethoxyphenyl)-1-[(5-methyl-1,3,4-oxadiazol-2-yl)methyl]-2-oxo-1,2,3,4-tetrahydropyrido[4,3-d]pyrimidin-7-yl}pyridin-2-yl)cyclobutanecarbonitrile] | >10 | >10 |
| COc1cc(OC)c(F)c(N2Cc3cnc(-c4ccc(C5(C#N)CCC5)nc4)cc3N(c3ccncn3)C2=O)c1F [Example 135, 1-(5-(3-(2,6-difluoro-3,5-dimethoxyphenyl)-2-oxo-1-(pyrimidin-4-yl)-1,2,3,4-tetrahydropyrido[4,3-d]pyrimidin-7-yl)pyridin-2-yl)cyclobutanecarbonitrile] | >5 | >10 |
| COc1cc(OC)c(F)c(N2Cc3cnc(-c4ccc(C5(C#N)CCC5)nc4)cc3N(c3cnn(C)c3)C2=O)c1F [Example 188, 1-{5-[3-(2,6-difluoro-3,5-dimethoxyphenyl)-1-(1-methyl-1H-pyrazol-4-yl)-2-oxo-1,2,3,4-tetrahydropyrido[4,3-d]pyrimidin-7-yl]pyridin-2-yl}cyclobutanecarbonitrile] | >5 | >5 |
| COc1cc(OC)c(F)c(N2Cc3cnc(-c4cn(CCC5CCNCC5)nc4C)cc3C3(CC3)C2=O)c1F [Example 165, 2′-(2,6-difluoro-3,5-dimethoxyphenyl)-6′-(3-methyl-1-(2-(piperidin-4-yl)ethyl)-1H-pyrazol-4-yl)-1′H-spiro[cyclopropane-1,4′-[2,7]naphthyridin]-3′(2′H)-one] | >3 | >3 |
| COc1cc(OC)c(F)c(N2Cc3cnc(-c4cn(C)nc4C)cc3N(Cc3ccnc(C)c3)C2=O)c1F [Example 68, 3-(2,6-difluoro-3,5-dimethoxyphenyl)-7-(1,3-dimethyl-1H-pyrazol-4-yl)-1-((2-methylpyridin-4-yl)methyl)-3,4-dihydropyrido[4,3-d]pyrimidin-2(1H)-one] | >5 | >5 |
| COc1cc(OC)c(F)c(N2Cc3cnc(-c4cn(C)nc4C)cc3N(c3ccnnc3)C2=O)c1F [Example 57, 3-(2,6-difluoro-3,5-dimethoxyphenyl)-7-(1,3-dimethyl-1H-pyrazol-4-yl)-1-(pyridazin-4-yl)-3,4-dihydropyrido[4,3-d]pyrimidin-2(1H)-one] | >10 | >10 |
| COc1cc(OC)c(F)c(N2Cc3cnc(-c4cn(C)nc4C)cc3N(c3cnccn3)C2=O)c1F [Example 70, 3-(2,6-difluoro-3,5-dimethoxyphenyl)-7-(1,3-dimethyl-1H-pyrazol-4-yl)-1-(pyrazin-2-yl)-3,4-dihydropyrido[4,3-d]pyrimidin-2(1H)-one] | >5 | >5 |
